From the supplement of paper PMC10307832

Key:
Assay in all cases: relative viability (nuclei count vs DMSO), 5 days (fraction); higher = more cells survive
NCI-H1975 = tested on: NCI-H1975
In short: (§1)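 For relative viability, nuclei counts in treated wells were divided by those in vehicle wells. Lung cancer cell lines had been pin-tool dosed in 1536-well plates the day after seeding and cultured for 5 days, then fixed and stained in one step (final 0.05% Triton X-100, 1% formaldehyde, 1 ug/ml Hoechst) and imaged at 4×. Doses were one drug alone or a fixed anchor-drug dose plus five library-drug doses (not always all listed) in √10 steps, and values are duplicate-plate medians.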

SW 900 = tested on: SW 900
In short: as §1

HCC-366 = tested on: HCC-366
In short: as §1

LXF-289 = tested on: LXF-289
In short: as §1

NCI-H1793 = tested on: NCI-H1793
In short: as §1

NCI-H1755 = tested on: NCI-H1755
In short: as §1

LC-2-ad = tested on: LC-2-ad
In short: as §1

LU99A = tested on: LU99A
In short: as §1

EPLC-272H = tested on: EPLC-272H
In short: as §1

NCI-H2170 = tested on: NCI-H2170
In short: as §1

LCLC-97TM1 = tested on: LCLC-97TM1
In short: as §1

UMC-11 = tested on: UMC-11
In short: as §1

COR-L 105 = tested on: COR-L 105
In short: as §1

HOP-62 = tested on: HOP-62
In short: as §1

HCC-78 = tested on: HCC-78
In short: as §1

NCI-H1915 = tested on: NCI-H1915
In short: as §1

NCI-H460 = tested on: NCI-H460
In short: as §1

NCI-H1944 = tested on: NCI-H1944
In short: as §1

NCI-H1792 = tested on: NCI-H1792
In short: as §1

NCI-H358 = tested on: NCI-H358
In short: as §1

A-427 = tested on: A-427
In short: as §1

SK-LU-1 = tested on: SK-LU-1
In short: as §1

NCI-H2342 = tested on: NCI-H2342
In short: as §1

NCI-H2085 = tested on: NCI-H2085
In short: as §1

Compound: COc1cc(N2CCC(C(N)=O)CC2)ccc1Nc1nc(N)c(Cl)c(Nc2ccccc2S(=O)(=O)C(C)C)n1 [HG-5-88-01] + CC(=O)c1c(C)c2cnc(Nc3ccc(N4CCNCC4)cn3)nc2n(C2CCCC2)c1=O [Palbociclib] (partner 0.5 µM)
- relative viability (NCI-H1975; first compound 0.04 µM): 0.597
- relative viability (NCI-H1975; first compound 0.1265 µM): 0.643
- relative viability (NCI-H1975; first compound 0.4 µM): 0.464
- relative viability (NCI-H1975; first compound 1.265 µM): 0.538
- relative viability (NCI-H1975; first compound 4 µM): 0.425
- relative viability (SW 900; first compound 0.04 µM): 0.54
- relative viability (SW 900; first compound 0.1265 µM): 0.584
- relative viability (SW 900; first compound 0.4 µM): 0.473
- relative viability (SW 900; first compound 1.265 µM): 0.509
- relative viability (SW 900; first compound 4 µM): 0.567
- relative viability (HCC-366; first compound 0.04 µM): 0.397
- relative viability (HCC-366; first compound 0.1265 µM): 0.41
- relative viability (HCC-366; first compound 0.4 µM): 0.356
- relative viability (HCC-366; first compound 1.265 µM): 0.41
- relative viability (HCC-366; first compound 4 µM): 0.465
- relative viability (LXF-289; first compound 0.04 µM): 0.583
- relative viability (LXF-289; first compound 0.1265 µM): 0.628
- relative viability (LXF-289; first compound 0.4 µM): 0.572
- relative viability (LXF-289; first compound 1.265 µM): 0.59
- relative viability (LXF-289; first compound 4 µM): 0.636
- relative viability (NCI-H1793; first compound 0.04 µM): 0.301
- relative viability (NCI-H1793; first compound 0.1265 µM): 0.309
- relative viability (NCI-H1793; first compound 0.4 µM): 0.299
- relative viability (NCI-H1793; first compound 1.265 µM): 0.24
- relative viability (NCI-H1793; first compound 4 µM): 0.33
- relative viability (NCI-H1755; first compound 0.04 µM): 0.42
- relative viability (NCI-H1755; first compound 0.1265 µM): 0.494
- relative viability (NCI-H1755; first compound 0.4 µM): 0.485
- relative viability (NCI-H1755; first compound 1.265 µM): 0.419
- relative viability (NCI-H1755; first compound 4 µM): 0.455
- relative viability (LC-2-ad; first compound 0.04 µM): 0.471
- relative viability (LC-2-ad; first compound 0.1265 µM): 0.431
- relative viability (LC-2-ad; first compound 0.4 µM): 0.449
- relative viability (LC-2-ad; first compound 1.265 µM): 0.474
- relative viability (LC-2-ad; first compound 4 µM): 0.516
- relative viability (LU99A; first compound 0.04 µM): 0.434
- relative viability (LU99A; first compound 0.1265 µM): 0.39
- relative viability (LU99A; first compound 0.4 µM): 0.384
- relative viability (LU99A; first compound 1.265 µM): 0.32
- relative viability (LU99A; first compound 4 µM): 0.305
- relative viability (EPLC-272H; first compound 0.04 µM): 0.342
- relative viability (EPLC-272H; first compound 0.1265 µM): 0.342
- relative viability (EPLC-272H; first compound 0.4 µM): 0.335
- relative viability (EPLC-272H; first compound 1.265 µM): 0.273
- relative viability (EPLC-272H; first compound 4 µM): 0.0966
- relative viability (NCI-H2170; first compound 0.04 µM): 0.366
- relative viability (NCI-H2170; first compound 0.1265 µM): 0.386
- relative viability (NCI-H2170; first compound 0.4 µM): 0.407
- relative viability (NCI-H2170; first compound 1.265 µM): 0.361
- relative viability (NCI-H2170; first compound 4 µM): 0.457
- relative viability (LCLC-97TM1; first compound 0.04 µM): 0.214
- relative viability (LCLC-97TM1; first compound 0.1265 µM): 0.198
- relative viability (LCLC-97TM1; first compound 0.4 µM): 0.197
- relative viability (LCLC-97TM1; first compound 1.265 µM): 0.194
- relative viability (LCLC-97TM1; first compound 4 µM): 0.118
- relative viability (UMC-11; first compound 0.04 µM): 0.321
- relative viability (UMC-11; first compound 0.1265 µM): 0.369
- relative viability (UMC-11; first compound 0.4 µM): 0.297
- relative viability (UMC-11; first compound 1.265 µM): 0.348
- relative viability (UMC-11; first compound 4 µM): 0.308
- relative viability (COR-L 105; first compound 0.04 µM): 0.398
- relative viability (COR-L 105; first compound 0.1265 µM): 0.419
- relative viability (COR-L 105; first compound 0.4 µM): 0.459
- relative viability (COR-L 105; first compound 1.265 µM): 0.403
- relative viability (COR-L 105; first compound 4 µM): 0.394
- relative viability (HOP-62; first compound 0.04 µM): 0.428
- relative viability (HOP-62; first compound 0.1265 µM): 0.54
- relative viability (HOP-62; first compound 0.4 µM): 0.456
- relative viability (HOP-62; first compound 1.265 µM): 0.501
- relative viability (HOP-62; first compound 4 µM): 0.608
- relative viability (HCC-78; first compound 0.04 µM): 0.465
- relative viability (HCC-78; first compound 0.1265 µM): 0.424
- relative viability (HCC-78; first compound 0.4 µM): 0.497
- relative viability (HCC-78; first compound 1.265 µM): 0.421
- relative viability (HCC-78; first compound 4 µM): 0.44
- relative viability (NCI-H1915; first compound 0.04 µM): 0.592
- relative viability (NCI-H1915; first compound 0.1265 µM): 0.559
- relative viability (NCI-H1915; first compound 0.4 µM): 0.588
- relative viability (NCI-H1915; first compound 1.265 µM): 0.565
- relative viability (NCI-H1915; first compound 4 µM): 0.502
- relative viability (NCI-H460; first compound 0.04 µM): 0.171
- relative viability (NCI-H460; first compound 0.1265 µM): 0.155
- relative viability (NCI-H460; first compound 0.4 µM): 0.0931
- relative viability (NCI-H460; first compound 1.265 µM): 0.247
- relative viability (NCI-H460; first compound 4 µM): 0.274
- relative viability (NCI-H1944; first compound 0.04 µM): 0.37
- relative viability (NCI-H1944; first compound 0.1265 µM): 0.351
- relative viability (NCI-H1944; first compound 0.4 µM): 0.36
- relative viability (NCI-H1944; first compound 1.265 µM): 0.322
- relative viability (NCI-H1944; first compound 4 µM): 0.31
- relative viability (NCI-H1792; first compound 0.04 µM): 0.74
- relative viability (NCI-H1792; first compound 0.1265 µM): 0.675
- relative viability (NCI-H1792; first compound 0.4 µM): 0.623
- relative viability (NCI-H1792; first compound 4 µM): 0.614
- relative viability (NCI-H358; first compound 0.04 µM): 0.139
- relative viability (NCI-H358; first compound 0.1265 µM): 0.131
- relative viability (NCI-H358; first compound 0.4 µM): 0.118
- relative viability (NCI-H358; first compound 1.265 µM): 0.0962
- relative viability (NCI-H358; first compound 4 µM): 0.0785
- relative viability (A-427; first compound 0.04 µM): 0.536
- relative viability (A-427; first compound 0.1265 µM): 0.541
- relative viability (A-427; first compound 0.4 µM): 0.541
- relative viability (A-427; first compound 1.265 µM): 0.517
- relative viability (A-427; first compound 4 µM): 0.463
- relative viability (SK-LU-1; first compound 0.04 µM): 0.363
- relative viability (SK-LU-1; first compound 0.1265 µM): 0.422
- relative viability (SK-LU-1; first compound 0.4 µM): 0.505
- relative viability (SK-LU-1; first compound 1.265 µM): 0.329
- relative viability (SK-LU-1; first compound 4 µM): 0.332
- relative viability (NCI-H2342; first compound 0.04 µM): 0.557
- relative viability (NCI-H2342; first compound 0.1265 µM): 0.54
- relative viability (NCI-H2342; first compound 0.4 µM): 0.471
- relative viability (NCI-H2342; first compound 4 µM): 0.539
- relative viability (NCI-H2085; first compound 0.04 µM): 0.474
- relative viability (NCI-H2085; first compound 0.1265 µM): 0.485
- relative viability (NCI-H2085; first compound 0.4 µM): 0.458
- relative viability (NCI-H2085; first compound 1.265 µM): 0.465
- relative viability (NCI-H2085; first compound 4 µM): 0.552
